Measurements taken from patent publication US20230355547A1, “STABILIZATION OF VITAMIN A IN A NUTRITIONAL SOLUTION” (BAXTER INTERNATIONAL INC., priority 2020, published 2023).

Test: Impact of dissolved oxygen on the stability of vitamin A in a 10% soybean lipid emulsion (Example 4)
Format: physicochemical
Conditions: more than 6 months at 40° C., independently of light exposure
Excerpt: Accordingly, at an oxygen level of about 0.300 ppm vitamin A after 6 months is no longer considered stable, i.e. recovery drops below 80%.
Various methods can be used to determine the DO content of a given solution. Generally, electrochemical or optical sensors are used for determining the DO concentration according to the invention. A preferred method comprises using a fiber-optic oxygen meter such as MICROX TX3, which is a single-channel, temperature-compensated oxygen meter with fiber-optic trace oxygen microsensors based on a glass fiber (e.g. 140 μm). […] For data visualization during measurements, the oxygen meter is connected to a LCD & Data-Logger Unit.
The stability of vitamin A was tested in a 10% soybean lipid emulsion having a peroxide level of below 5 milliequivalents (mEq) O2/kg. The lipid emulsion contained vitamin A in a concentration of 1 dd/25 mL, as well as vitamin E in a concentration of 1 dd/25 mL and the pH was adjusted to 5.9 with HCl.
FIG. 2 depicts the dependency of vitamin A recovery on the presence of dissolved oxygen.

vitamin A
stability in the presence of oxygen of above 0.3 ppm: not stable
